How the values were obtained:
all TFFs = test: Dissociation constant of TFF-disaccharide complexes, summary of orthogonal techniques; assay type: binding, human; details: physiological pH, approximate
Description: (§1) All TFF and ligand stock solutions were prepared in the same buffer (50 mM HEPES, 50 mM NaCl, pH 7.4) and filtered (0.22 µm) just prior to titration. All control and non-binding ligand experiments were performed as 12 × 3.18 µl injections. For experiments with GlcNAc-α-1,4-Gal (Carbosynth), 25 × 1.58 µl injections were used. All runs were performed at 25 °C in a MicroCal iTC200 (Malvern).
(§2) Tryptophan fluorescence quenching assays were performed at 25 °C on an EnVision 2105 Multimode Plate Reader (PerkinElmer) with excitation at 280 nm and emission measured at 340 nm. The assay was performed in a 384-well plate (Corning, low volume black round bottom polystyrene non-binding surface) using 15 µl per well. Each sample contained mTFF1 or mTFF3 (5 µM) and GlcNAc-α-1,4-Gal (1 µM–4.1 mM) in 50 mM BTP/citric acid, 25 mM NaCl, at either pH 2.6, 5.0, or 7.4. For each ligand dilution series, Kd was calculated by fitting the data to a one-site binding curve using Prism 8 (GraphPad) and the mean calculated from three independent experiments.

[1] = target: T1, mTFF1 (human TFF1, monomeric) (Homo sapiens, UniProt P04155); test: Isothermal titration calorimetry of glycans against mTFF1; assay type: binding; details: 25 °C
T1 construct: PelB signal peptide (N, cleaved yes); His6 (C, cleaved yes); made in house; host or cells: E. coli T7 Express, periplasmic extraction
T1 sequence (P04155 with tags, fused parts or gaps): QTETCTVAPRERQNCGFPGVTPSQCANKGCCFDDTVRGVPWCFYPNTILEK
Description: as §1
(§3) Supplementary Table 2: Parameters used for ITC and thermodynamic terms determined for
(§4) GlcNAc-α-1,4-Gal binding to the TFFs. Data are presented as mean values ±SD for three
(§5) Protein GlcNAc-α- T n Kd ΔH ΔS -TΔS ΔG
(§6) (30 µM) 1,4-Gal (µM) (℃) (µM) (kcal · mol-1) (cal · mol-1 · K-1) (kcal · mol-1) (kcal · mol-1)

mTFF1 = target: T2, mTFF1 (Homo sapiens, UniProt P04155); test: Tryptophan fluorescence quenching assay, mTFF1; assay type: binding
T2 construct: PelB signal peptide (N, cleaved yes); His6 (C, cleaved yes); made in house; host or cells: E. coli T7 Express, periplasmic extraction
T2 sequence (P04155 29-72 limits assumed): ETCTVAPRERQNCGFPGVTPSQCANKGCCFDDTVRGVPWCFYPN
Description: as §2

the other TFF mutants = test: ITC of GlcNAc-α-1,4-Gal against the other TFF mutants; assay type: binding, human
Description: as §1
(§7) Supplementary Figure 1: ITC controls and negative results. Top row: Ligand into buffer and
(§8) buffer into protein controls for Figure 1D. Bottom row: ITC data for TFF mutants.
(§9) (1 picture or pasted object on this page, not shown here)

TFF2 (human TFF2) = target: T3, TFF2 (human TFF2) (Homo sapiens, UniProt Q03403, N38Q); test: Isothermal titration calorimetry of glycans against TFF2; assay type: binding
T3 construct: with an N-terminal gp67 signal peptide and a C-terminal His10-tag; gp67 signal peptide (N, cleaved yes); made in house; host or cells: Sf21 insect cells (baculovirus), secreted
T3 sequence (Q03403 24-129 N38Q): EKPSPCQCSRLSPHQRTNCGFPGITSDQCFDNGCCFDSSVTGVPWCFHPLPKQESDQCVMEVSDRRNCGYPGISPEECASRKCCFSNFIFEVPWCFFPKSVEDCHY
Description: as §1, §3, §4, §5, §6

mTFF3 = target: T4, mTFF3 (Homo sapiens, UniProt Q07654, C78S); test: Tryptophan fluorescence quenching assay, mTFF3; assay type: binding
T4 construct: with an N-terminal PelB signal peptide, no interchain Cys, and a C-terminal His6-tag; PelB signal peptide (N, cleaved yes); His6 (C, cleaved yes); made in house; host or cells: E. coli T7 Express, periplasmic extraction
T4 sequence (Q07654 22-80 C78S): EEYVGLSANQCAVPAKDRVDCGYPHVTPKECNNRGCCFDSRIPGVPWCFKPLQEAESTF
Description: as §2

dTFF1bio-N14A = target: T5, dTFF1bio-N14A (Homo sapiens, UniProt P04155, N40A); test: ITC of GlcNAc-α-1,4-Gal against dTFF1bio-N14A; assay type: binding; details: mutant dTFF1bio-N14A
T5 construct: […]; made in house; host or cells: E. coli SHuffle T7; dimerised with K3Fe(CN)6
T5 sequence (P04155 25-84 N40A): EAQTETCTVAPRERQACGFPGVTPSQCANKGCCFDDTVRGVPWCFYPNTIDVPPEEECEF
Description: as §1, §7, §8, §9

[2] = target: bacterial carbohydrate-binding module family 32 protein (CBM32); details: CBM32 binding GlcNAc-α-1,4-Gal; cited from earlier work
[3] = target: T6, mTFF3 (human TFF3, monomeric) (Homo sapiens, UniProt Q07654, C78S); test: Isothermal titration calorimetry of glycans against mTFF3; assay type: binding
T6 construct: with an N-terminal PelB signal peptide, no interchain Cys, and a C-terminal His6-tag; PelB signal peptide (N, cleaved yes); His6 (C, cleaved yes); made in house; host or cells: E. coli T7 Express, periplasmic extraction
T6 sequence (Q07654 22-80 C78S): T4 sequence (Q07654 22-80 C78S)
Description: as §1, §3, §4, §5, §6

In the case of `CC(=O)N[C@H]1[C@@H](O[C@@H]2[C@H](O)[C@@H](O)C(O)O[C@@H]2CO)O[C@H](CO)[C@@H](O)[C@@H]1O` (stereo partly drawn) [GlcNAc-α-1,4-Gal], the Kd (all TFFs) is reported as about 50 µM, the n ([1]; ITC stoichiometry) is reported as 1.0 ± 0.2 and the “-TΔS” value ([1]; ITC) is reported as 4 ± 2 kcal/mol. For the same molecule, the ΔG ([1]; ITC) was -5.97 ± 0.03 kcal/mol, the ΔH ([1]; ITC) was -10 ± 2 kcal/mol and the ΔS ([1]; ITC) was -14 ± 5 cal · mol-1 · K-1. For the same molecule, the Kd ([1]; ITC, 50 mM HEPES, 50 mM NaCl, pH 7.4, protein 30 µM) was 49 ± 4 µM, the Kd (mTFF1; pH 2.6, 25 °C) was 67 ± 1 µM and the Kd (mTFF1; pH 7.4, 25 °C) was 37 ± 2 µM. For the same molecule, the “binding by ITC” value (the other TFF mutants) was “unable to detect any binding”, the Kd (TFF2 (human TFF2)) was 44 ± 8 µM and the n (TFF2 (human TFF2); ITC stoichiometry, 25 °C) was 0.7 ± 0.3. For the same molecule, the “-TΔS” value (TFF2 (human TFF2); ITC, 25 °C) was 20 ± 10 kcal/mol, the ΔG (TFF2 (human TFF2); ITC, 25 °C) was -6.2 ± 0.2 kcal/mol and the ΔH (TFF2 (human TFF2); ITC, 25 °C) was -20 ± 10 kcal/mol. It also gave a ΔS (TFF2 (human TFF2); ITC, 25 °C) of -60 ± 40 cal · mol-1 · K-1, a Kd (mTFF3; pH 2.6, 25 °C) of 350 ± 60 µM and a Kd (mTFF3; pH 7.4, 25 °C) of 58 ± 1 µM. The “Kd at pH 2.6 relative to pH 7.4” value (mTFF3; mTFF3) was “six-fold higher”, the “binding by ITC” value (dTFF1bio-N14A) was “unable to detect any binding” and the “binding by ITC” value (dTFF1bio-N14A; listed as GlcNAc-a-1,4-Gal) was “could not detect any residual binding”. The Kd [2] was 72 µM, the Kd [3] was 65 ± 5 µM and the n ([3]; ITC stoichiometry, 25 °C) was 1.0 ± 0.1. For the same molecule, the “-TΔS” value ([3]; ITC, 25 °C) was 5.0 ± 0.5 kcal/mol, the ΔG ([3]; ITC, 25 °C) was -5.83 ± 0.05 kcal/mol and the ΔH ([3]; ITC, 25 °C) was -10.8 ± 0.5 kcal/mol. The ΔS ([3]; ITC, 25 °C) was -17 ± 2 cal · mol-1 · K-1.

— article PMC7221086, “Trefoil factors share a lectin activity that defines their role in mucus” (Nature Communications, 2020)
